Four compounds from publication PMC11912224, “A general approach for activity-based protein profiling of oxidoreductases with redox-differentiated diarylhalonium warheads” (Chemical Science, 2025) can be followed below.

Holding throughout (assay): covalent labelling, streptavidin enrichment, LC-MS/MS
Holding throughout (conditions): 30 uM probe, 1 h, mouse liver pieces

Assay [1] concerns the target T1, choline dehydrogenase (CHDH, mCHDH) (Mus musculus, UniProt Q8BJ64).
T1 construct: native, in intact mouse liver pieces
T1 sequence (Q8BJ64 35-596): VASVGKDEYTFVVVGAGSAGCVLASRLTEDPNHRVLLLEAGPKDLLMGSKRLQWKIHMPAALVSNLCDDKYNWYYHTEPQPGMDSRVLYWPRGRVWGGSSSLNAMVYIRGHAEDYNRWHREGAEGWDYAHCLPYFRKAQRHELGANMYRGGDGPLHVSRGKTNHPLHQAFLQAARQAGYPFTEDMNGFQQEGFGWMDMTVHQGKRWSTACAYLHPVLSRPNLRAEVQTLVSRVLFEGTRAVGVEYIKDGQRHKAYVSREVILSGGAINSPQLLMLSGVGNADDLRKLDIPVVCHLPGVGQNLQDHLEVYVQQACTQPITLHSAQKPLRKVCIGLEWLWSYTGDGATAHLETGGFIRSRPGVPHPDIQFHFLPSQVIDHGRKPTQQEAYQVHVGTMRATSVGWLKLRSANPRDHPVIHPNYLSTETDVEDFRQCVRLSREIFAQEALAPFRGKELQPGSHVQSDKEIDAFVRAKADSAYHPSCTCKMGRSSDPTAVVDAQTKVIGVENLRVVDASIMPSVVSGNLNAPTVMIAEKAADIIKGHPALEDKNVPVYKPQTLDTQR

A further assay deals with T2, CYP2D10 (Mus musculus, UniProt P24456).
T2 construct: native, in intact mouse liver pieces
T2 sequence (P24456 1-504): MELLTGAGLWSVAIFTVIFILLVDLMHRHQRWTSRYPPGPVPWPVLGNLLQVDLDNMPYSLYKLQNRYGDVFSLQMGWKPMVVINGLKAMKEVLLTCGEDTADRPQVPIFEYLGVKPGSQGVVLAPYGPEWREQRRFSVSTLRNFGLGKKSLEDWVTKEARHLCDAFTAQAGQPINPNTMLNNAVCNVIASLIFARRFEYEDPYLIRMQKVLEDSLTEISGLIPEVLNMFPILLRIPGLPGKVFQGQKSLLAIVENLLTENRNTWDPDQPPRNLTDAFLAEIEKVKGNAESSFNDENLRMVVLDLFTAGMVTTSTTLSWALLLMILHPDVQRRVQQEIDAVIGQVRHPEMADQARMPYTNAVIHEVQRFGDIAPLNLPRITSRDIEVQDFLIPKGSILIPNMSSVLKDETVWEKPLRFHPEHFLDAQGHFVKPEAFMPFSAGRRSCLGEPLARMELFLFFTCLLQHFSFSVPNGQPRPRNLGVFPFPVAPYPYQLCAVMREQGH

The target of assay [2] is T3, glycerol-3-phosphate dehydrogenase mitochondrial (GPD2) (Mus musculus, UniProt Q64521).
T3 construct: native, in intact mouse liver pieces
T3 sequence (Q64521 43-727): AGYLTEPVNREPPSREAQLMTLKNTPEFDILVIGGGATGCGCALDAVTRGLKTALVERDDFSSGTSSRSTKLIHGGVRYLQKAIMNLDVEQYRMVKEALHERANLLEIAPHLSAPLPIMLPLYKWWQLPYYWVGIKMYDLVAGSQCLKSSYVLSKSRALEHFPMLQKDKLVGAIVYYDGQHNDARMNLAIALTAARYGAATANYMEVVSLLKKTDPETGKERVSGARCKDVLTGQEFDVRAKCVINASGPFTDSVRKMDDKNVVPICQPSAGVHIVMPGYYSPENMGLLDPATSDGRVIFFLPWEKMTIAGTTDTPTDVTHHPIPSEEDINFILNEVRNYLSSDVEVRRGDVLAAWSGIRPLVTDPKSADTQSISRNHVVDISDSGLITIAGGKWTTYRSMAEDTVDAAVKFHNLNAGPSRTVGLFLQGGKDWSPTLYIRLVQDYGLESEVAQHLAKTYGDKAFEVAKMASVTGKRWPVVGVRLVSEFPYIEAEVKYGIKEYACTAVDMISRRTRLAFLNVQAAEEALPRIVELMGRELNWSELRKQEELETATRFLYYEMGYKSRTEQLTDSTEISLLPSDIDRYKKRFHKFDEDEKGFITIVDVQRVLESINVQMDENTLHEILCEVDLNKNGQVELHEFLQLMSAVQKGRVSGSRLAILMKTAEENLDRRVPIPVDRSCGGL

The target in assay [3] is T4, monoamine oxidase A (MAOA) (Mus musculus, UniProt Q64133).
T4 construct: native, in intact mouse liver pieces
T4 sequence (Q64133 1-526): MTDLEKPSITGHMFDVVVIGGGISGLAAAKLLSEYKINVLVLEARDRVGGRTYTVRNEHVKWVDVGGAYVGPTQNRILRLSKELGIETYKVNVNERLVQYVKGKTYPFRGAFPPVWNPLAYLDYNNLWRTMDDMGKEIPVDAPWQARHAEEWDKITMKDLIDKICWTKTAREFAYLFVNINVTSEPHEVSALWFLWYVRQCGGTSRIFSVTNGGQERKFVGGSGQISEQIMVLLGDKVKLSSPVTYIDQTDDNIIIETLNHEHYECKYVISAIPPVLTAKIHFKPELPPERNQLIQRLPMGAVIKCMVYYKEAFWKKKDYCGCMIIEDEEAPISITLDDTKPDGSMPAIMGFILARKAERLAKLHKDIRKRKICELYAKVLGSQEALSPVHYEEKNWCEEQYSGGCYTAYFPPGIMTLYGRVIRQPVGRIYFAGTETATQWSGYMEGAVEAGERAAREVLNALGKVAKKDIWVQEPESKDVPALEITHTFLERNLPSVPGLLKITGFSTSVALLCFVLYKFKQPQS

The target of assay [4] is T5, aldehyde oxidase 1 (AOX1) (Mus musculus, UniProt O54754).
T5 construct: native, in intact mouse liver pieces
T5 sequence (O54754 1-1333): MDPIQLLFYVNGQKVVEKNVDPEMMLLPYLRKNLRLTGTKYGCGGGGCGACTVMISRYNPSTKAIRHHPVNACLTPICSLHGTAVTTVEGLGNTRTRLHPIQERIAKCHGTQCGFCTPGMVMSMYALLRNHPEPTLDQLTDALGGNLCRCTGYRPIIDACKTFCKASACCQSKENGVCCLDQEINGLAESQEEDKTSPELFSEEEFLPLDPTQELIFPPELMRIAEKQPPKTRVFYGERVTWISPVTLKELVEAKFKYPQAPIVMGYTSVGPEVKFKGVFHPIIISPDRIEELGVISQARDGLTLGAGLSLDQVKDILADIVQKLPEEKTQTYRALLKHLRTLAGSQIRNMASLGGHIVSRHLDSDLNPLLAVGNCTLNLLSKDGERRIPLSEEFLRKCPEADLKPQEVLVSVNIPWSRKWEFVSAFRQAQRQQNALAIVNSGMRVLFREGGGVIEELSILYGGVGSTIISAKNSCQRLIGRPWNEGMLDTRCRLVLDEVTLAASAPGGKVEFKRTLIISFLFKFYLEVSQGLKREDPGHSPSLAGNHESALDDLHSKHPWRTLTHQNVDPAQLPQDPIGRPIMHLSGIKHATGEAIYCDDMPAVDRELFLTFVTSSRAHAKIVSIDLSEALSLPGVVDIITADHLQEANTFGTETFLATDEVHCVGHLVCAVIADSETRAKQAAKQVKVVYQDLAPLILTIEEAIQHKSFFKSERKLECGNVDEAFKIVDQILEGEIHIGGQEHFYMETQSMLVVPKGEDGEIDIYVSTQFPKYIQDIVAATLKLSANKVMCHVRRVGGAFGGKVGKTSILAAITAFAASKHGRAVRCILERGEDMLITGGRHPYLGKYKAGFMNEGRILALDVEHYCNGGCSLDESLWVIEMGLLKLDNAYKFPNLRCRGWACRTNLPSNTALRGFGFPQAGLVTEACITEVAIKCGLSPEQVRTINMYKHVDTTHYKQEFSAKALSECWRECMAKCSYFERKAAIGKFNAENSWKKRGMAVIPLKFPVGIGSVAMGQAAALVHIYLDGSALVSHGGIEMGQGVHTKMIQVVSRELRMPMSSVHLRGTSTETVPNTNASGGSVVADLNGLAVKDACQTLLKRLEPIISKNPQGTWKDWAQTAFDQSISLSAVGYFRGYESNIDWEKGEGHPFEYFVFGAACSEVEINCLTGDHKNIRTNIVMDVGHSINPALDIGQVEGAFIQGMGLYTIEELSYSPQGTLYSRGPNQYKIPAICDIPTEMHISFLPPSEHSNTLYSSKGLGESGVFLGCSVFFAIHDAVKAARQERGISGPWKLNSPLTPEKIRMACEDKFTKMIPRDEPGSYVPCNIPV

Take `[N-]=[N+]=NCCCCCCCCCCNC(=O)c1ccc2c(c1)-c1ccccc1[Cl+]2` [3ha, diphenylenechloronium-based probe 3ha]: the “covalent labelling, streptavidin enrichment, LC-MS/MS” value (“covalent labelling” below) in assay [1] is recorded as “choline dehydrogenase (CHDH), which is similar to the bacterial choline oxidase”. As to `[N-]=[N+]=NCCCCCCCCCCNC(=O)c1ccc2c(c1)[Br+]c1ccccc1-2` [3ga, diphenylenebromonium-based probe 3ga], the “covalent labelling” value on CYP2D10 is reported as “two significantly enriched CYP450s (CYP27A1, CYP2D10)”; in assay [2], “GPD2 was exclusively enriched by diarylbromonium probe 3ga”. `[N-]=[N+]=NCCOCCOCCOCCNC(=O)c1ccc2c(c1)-c1ccccc1[Br+]2` [3fb, diphenylenebromonium probe 3fb]: in assay [3], the “covalent labelling” value is recorded as “MAOA exclusively by diarylbromonium probe 3fb”. Regarding `[N-]=[N+]=NCCCCCCCCCCNC(=O)c1ccc2c(c1)[I+]c1ccccc1-2` [3da, diphenyleneiodonium-based probe 3da], the “covalent labelling” value in assay [4] was “five are oxidoreductases (CYP27A1, CYP2D10, CYP3A25, HMOX2, and AOX1)”.
